According to patent US7026296B2, “Methods of treating dry eye disorders” (Alcon, Inc., priority 2002, dated 2006):

Assays:
[1] = test system: IL-6 production from CEPI-17 cells; test: Inhibition of hyperosmolarity-induced IL-6 production from human corneal epithelial cells in vitro; type: cell-based; conditions: Corneal epithelial cell, 1 hour pre-treatment, hypertonic KGM-HC (additional 80 mM NaCl) 6 hours, ELISA, normalized by dsDNA
Experimental: (§1) Inhibition of Hyperosmolarity-Induced Cytokine Production from Human Corneal Epithelial Cells in vitro.
(§2) The ocular tear film in dry eye is abnormally hyperosmolar, which is irritating to ocular surface cells. Treatment of human conjunctival epithelial cells with a hypertonic media elicits the production of pro-inflammatory cytokines. A selective JNK inhibitor, anthra[1,9-cd]pyrazol-6(2H)-one, was evaluated for inhibition of hyperosmolarity-induced cytokine secretion from the transformed human corneal epithelial cell line, CEPI-17.CEPI-17 cells were grown in complete isotonic Keratinocyte Growth Medium (iso KGM) and plated in 48-well plates in iso KGM without hydrocortisone (iso KGM-HC). When the cells reached confluence, they were pre-treated for 1 hour with the compound at the indicated concentration in iso KGM-HC. The cells were then stimulated by hypertonic KGM-HC for 6 hours (additional 80 mM NaCl added in iso KGM-HC) in the presence of the compound. Aliquots of the supernatants were assayed for IL-6,IL-8 by ELISA. Cytokine release was normalized by the amount of double stranded DNA (dsDNA) extracted from the cells. Percent inhibition of cytokine production was calculated by comparison with cytokine levels in vehicle-treated cells.

[2] = test system: IL-8 production from CEPI-17 cells; test: Inhibition of hyperosmolarity-induced IL-8 production from human corneal epithelial cells in vitro; type: cell-based; conditions: Corneal epithelial cell, 1 hour pre-treatment, hypertonic KGM-HC (additional 80 mM NaCl) 6 hours, ELISA, normalized by dsDNA
Experimental: as §1, §2

## O=C1c2ccccc2-c2n[nH]c3cccc1c23 [SP-600125, anthra[1,9-cd]pyrazol-6(2H)-one]
[1]
  IC50: 12.6 µM
[2]
  IC50: 3.7 µM
